Results on three compounds are retold here after patent US7935720B2, “Crystal of substituted phenylalkanoic acid ester and process for producing the same” (Asahi Kasei Pharma Corporation, priority 2006, dated 2011).

Data set [1] relates to prostaglandin production. The note with it: reported in Patent Document 1; cited from earlier work.
Data set [2] deals with leukotriene production. The conditions noted are these: reported in Patent Document 1; cited from earlier work.
Data set [3] can be described thus: Solubility test in Japanese Pharmacopoeia disintegration test fluids (HPLC). Format: physicochemical. The note with it: for Solubility to 1st fluid for disintegration test of Japanese Pharmacopoeia (pH 1.2) / Solubility to 2nd fluid for disintegration test of Japanese Pharmacopoeia (pH 6.8): shaken for 24 hours at 37° C. The protocol:
The type A crystals of compound 1 of the invention prepared according to Example 3, and the type B crystals of compound 1 of the invention prepared according to Example 4 were respectively weighed to 10 mg in a 10-mL centrifuge tube, 3 mL each of 1st fluid for disintegration test of Japanese Pharmacopoeia (pH 1.2) was added respectively, and the mixture solutions were shaken for 24 hours at 37° C. After the shaking, the solutions were filtered, 1 mL of each filtrate was exactly pipeted, and 1 mL of acetonitrile was exactly added to obtain a sample solution.
The sample solutions were analyzed by using HPLC technique with the following conditions and the concentration of the compound in the sample solution was determined by comparing it with that of a standard solution having an already known concentration under the following HPLC conditions, to determine the solubility.
The same test was performed with 2nd fluid for disintegration test of Japanese Pharmacopoeia (pH 6.8), to determine the solubility.
Detector: Ultraviolet absorption spectrometer (wavelength: 235 nm)
Mobile phase: 50 mmol/L sodium dihydrogen phosphate/acetonitrile (55:45)
Column: YMC-Pack Pro C18, internal diameter: 4.6 mm, length: 15 cm (YMC Corporation)
Column temperature: 40° C.

Data set [4] in a line: Measurement of water content after filtration. Format: physicochemical. The note with it: wet crystals after filtration and dehydration; calculated from weight of wet crystals and weight after drying. The protocol: The respective water contents of the crystals obtained in Example 10 and Example 11 were calculated from the weight of the wet crystals and the weight of the crystals after drying.

Data set [5] concerns footpad edema in rat adjuvant arthritis. Put plainly: Prophylactic and therapeutic effect against rat adjuvant arthritis. Format: in vivo. The conditions noted are these: oral, 0.1 to 50 mg/0.2 ml/kg, suspended in 0.5% methylcellulose; compared with the positive control group. The protocol:
For the compounds of the invention, a suppressive effect against footpad edema in rat adjuvant arthritis, which is a disease model for chronic rheumatoid arthritis as being one of autoimmune diseases and also a chronic inflammatory disease, was investigated according to the method of International Patent Publication No. WO 03/70686. The test compound was suspended in purified water containing 0.5% methylcellulose, and was orally administered to test animals at a dose of 0.1 to 50 mg/0.2 ml/kg.

SMILES strings stand for the structures.

For `Cn1ncc2cc(-c3cc(CCC(=O)O)cc(N)c3OC3Cc4ccccc4C3)ccc21` [Compound 1, 3-[3-amino-4-(indan-2-yloxy)-5-(1-methyl-1H-indazol-5-yl)phenyl]propionic acid], the “Prostaglandin production suppressing effect” value in data set [1] is listed as “prostaglandin production suppressing effect”. Besides, the “Leukotriene production suppressing effect” value in data set [2] is “leukotriene production suppressing effect”.

As to `Cn1ncc2cc(-c3cc(CCC(=O)O)cc(N)c3OC3Cc4ccccc4C3)ccc21` [Type A crystal, 3-[3-amino-4-(indan-2-yloxy)-5-(1-methyl-1H-indazol-5-yl)phenyl]propionic acid], in data set [3] (1st fluid (pH 1.2) and 2nd fluid (pH 6.8)), the “Solubility of type A crystal relative to type B crystal” value is “three-fold greater”. In data set [3], the “Solubility to 1st fluid for disintegration test of Japanese Pharmacopoeia (pH 1.2)” value is reported as 0.03 mg/mL and the “Solubility to 2nd fluid for disintegration test of Japanese Pharmacopoeia (pH 6.8)” value was 0.06 mg/mL. Further, in data set [4], the Water content is 52.5%. For the same compound, the “Suppression of footpad edema in rat adjuvant arthritis” value in data set [5] is “suppressed footpad edema”.

As to `Cn1ncc2cc(-c3cc(CCC(=O)O)cc(N)c3OC3Cc4ccccc4C3)ccc21` [Type B crystal, 3-[3-amino-4-(indan-2-yloxy)-5-(1-methyl-1H-indazol-5-yl)phenyl]propionic acid], in data set [3], the “Solubility to 1st fluid for disintegration test of Japanese Pharmacopoeia (pH 1.2)” value is 0.01 mg/mL and the “Solubility to 2nd fluid for disintegration test of Japanese Pharmacopoeia (pH 6.8)” value is 0.02 mg/mL. Besides, the Water content in data set [4] is on record as 39.3%. The “Suppression of footpad edema in rat adjuvant arthritis” value in data set [5] is given as “suppressed footpad edema”.
